From patent publication US20210045385A1, “PYRIDAZINONE-SUBSTITUTED KETOXIMES AS HERBICIDES” (FMC Corporation, priority 2018, published 2021)

Assays:
Type in all cases: in vivo
[1] = system: Italian ryegrass (Lolium multiflorum); assay: Test A postemergence, visual plant response rating; details: for Ryegrass, Italian plant response rating (0 to 100 scale): 500 g ai/ha, postemergence, 0 is no effect, 100 is complete control; for Ryegrass, Italian plant response rating: Postemergence, 125 g ai/ha, 0 to 100 scale (0 no effect, 100 complete control)
Summary of the method: (§1)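 Preemergence: seeds in loam/sand blend given directed soil spray of compound in non-phytotoxic solvent with surfactant. Postemergence: plants 2–10 cm, one- to two-leaf stage, sprayed with same formulation. Visual injury rated vs untreated controls after ~10 days in greenhouse, 0 (no effect) to 100 (complete control).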

[2] = system: ragweed (common ragweed, Ambrosia elatior); assay: Test A postemergence, visual plant response rating; details: for Ragweed plant response rating (0 to 100 scale): 500 g ai/ha, postemergence, 0 is no effect, 100 is complete control; for Ragweed plant response rating: Postemergence, 125 g ai/ha, 0 to 100 scale (0 no effect, 100 complete control)
Summary of the method: as §1

corn (Zea mays) = assay: Test A postemergence, visual plant response rating; details: for Corn plant response rating (0 to 100 scale): 500 g ai/ha, postemergence, 0 is no effect, 100 is complete control; for Corn plant response rating: Postemergence, 125 g ai/ha, 0 to 100 scale (0 no effect, 100 complete control)
Summary of the method: as §1

kochia (Kochia scoparia) [3] = assay: Test A postemergence, visual plant response rating; details: for Kochia plant response rating (0 to 100 scale): 500 g ai/ha, postemergence, 0 is no effect, 100 is complete control; for Kochia plant response rating: Postemergence, 125 g ai/ha, 0 to 100 scale (0 no effect, 100 complete control)
Summary of the method: as §1

[4] = system: wheat (Triticum aestivum); assay: Test A postemergence, visual plant response rating; details: for Wheat plant response rating (0 to 100 scale): 500 g ai/ha, postemergence, 0 is no effect, 100 is complete control; for Wheat plant response rating: Postemergence, 125 g ai/ha, 0 to 100 scale (0 no effect, 100 complete control)
Summary of the method: as §1

[5] = system: barnyardgrass (Echinochloa crus-galli); assay: Test A postemergence, visual plant response rating; details: for Barnyardgrass plant response rating (0 to 100 scale): 500 g ai/ha, postemergence, 0 is no effect, 100 is complete control; for Barnyardgrass plant response rating: Postemergence, 125 g ai/ha, 0 to 100 scale (0 no effect, 100 complete control)
Summary of the method: as §1

[6] = system: pigweed (Amaranthus retroflexus); assay: Test A postemergence, visual plant response rating; details: for Pigweed plant response rating (0 to 100 scale): 500 g ai/ha, postemergence, 0 is no effect, 100 is complete control; for Pigweed plant response rating: Postemergence, 125 g ai/ha, 0 to 100 scale (0 no effect, 100 complete control)
Summary of the method: as §1

[7] = system: galium (catchweed bedstraw, Galium aparine); assay: Test A postemergence, visual plant response rating; details: for Galium plant response rating (0 to 100 scale): 500 g ai/ha, postemergence, 0 is no effect, 100 is complete control; for Galium plant response rating: Postemergence, 125 g ai/ha, 0 to 100 scale (0 no effect, 100 complete control)
Summary of the method: as §1

[8] = system: foxtail, giant (giant foxtail, Setaria faberii); assay: Test A postemergence, visual plant response rating; details: for Foxtail, Giant plant response rating (0 to 100 scale): 500 g ai/ha, postemergence, 0 is no effect, 100 is complete control; for Foxtail, Giant plant response rating: Postemergence, 125 g ai/ha, 0 to 100 scale (0 no effect, 100 complete control)
Summary of the method: as §1

[9] = system: blackgrass (Alopecurus myosuroides); assay: Test A postemergence, visual plant response rating; details: for Blackgrass plant response rating (0 to 100 scale): 500 g ai/ha, postemergence, 0 is no effect, 100 is complete control; for Blackgrass plant response rating: Postemergence, 125 g ai/ha, 0 to 100 scale (0 no effect, 100 complete control)
Summary of the method: as §1

[10] = system: ducksalad (Heteranhera limosa); assay: Test B flooded paddy test, visual plant response rating; details: 250 g ai/ha, Flood, applied to paddy water, 2-leaf stage, evaluated after 13 to 15 days
Summary of the method: (§2)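 Rice, umbrella sedge, ducksalad and barnyardgrass grown to 2-leaf stage; pots flooded 3 cm above soil and compound applied directly to paddy water, depth maintained.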

[11] = system: barnyardgrass (Echinochloa crus-galli); assay: as above; details: 250 g ai/ha, Flood, applied to paddy water, 2-leaf stage, evaluated after 13 to 15 days
Summary of the method: as §2

[12] = system: sedge, umbrella (small-flower umbrella sedge, Cyperus difformis); assay: as above; details: 250 g ai/ha, Flood, applied to paddy water, 2-leaf stage, evaluated after 13 to 15 days
Summary of the method: as §2

rice (Oryza sativa) = assay: as above; details: 250 g ai/ha, Flood, applied to paddy water, 2-leaf stage, evaluated after 13 to 15 days
Summary of the method: as §2

[13] = system: Italian ryegrass (Lolium multiflorum); assay: Test A preemergence, visual plant response rating; details: for Ryegrass, Italian plant response rating: 125 g ai/ha, preemergence, 0 to 100 scale, 0 no effect, 100 complete control; for Ryegrass, Italian plant response rating (0 to 100 scale): 500 g ai/ha Preemergence, approx. 10 days
Summary of the method: as §1

[14] = system: ragweed (common ragweed, Ambrosia elatior); assay: Test A preemergence, visual plant response rating; details: for Ragweed plant response rating: 125 g ai/ha, preemergence, 0 to 100 scale, 0 no effect, 100 complete control; for Ragweed plant response rating (0 to 100 scale): 500 g ai/ha Preemergence, approx. 10 days
Summary of the method: as §1

kochia (Kochia scoparia) [15] = assay: Test A preemergence, visual plant response rating; details: for Kochia plant response rating: 125 g ai/ha, preemergence, 0 to 100 scale, 0 no effect, 100 complete control; for Kochia plant response rating (0 to 100 scale): 500 g ai/ha Preemergence, approx. 10 days
Summary of the method: as §1

[16] = system: barnyardgrass (Echinochloa crus-galli); assay: Test A preemergence, visual plant response rating; details: for Barnyardgrass plant response rating: 125 g ai/ha, preemergence, 0 to 100 scale, 0 no effect, 100 complete control; for Barnyardgrass plant response rating (0 to 100 scale): 500 g ai/ha Preemergence, approx. 10 days
Summary of the method: as §1

[17] = system: pigweed (Amaranthus retroflexus); assay: Test A preemergence, visual plant response rating; details: for Pigweed plant response rating: 125 g ai/ha, preemergence, 0 to 100 scale, 0 no effect, 100 complete control; for Pigweed plant response rating (0 to 100 scale): 500 g ai/ha Preemergence, approx. 10 days
Summary of the method: as §1

[18] = system: foxtail, giant (giant foxtail, Setaria faberii); assay: Test A preemergence, visual plant response rating; details: for Foxtail, Giant plant response rating: 125 g ai/ha, preemergence, 0 to 100 scale, 0 no effect, 100 complete control; for Foxtail, Giant plant response rating (0 to 100 scale): 500 g ai/ha Preemergence, approx. 10 days
Summary of the method: as §1

SMILES	Ryegrass, Italian plant response rating (0 to 100 scale) [1]	Ryegrass, Italian plant response rating [1]	Ragweed plant response rating (0 to 100 scale) [2]	Ragweed plant response rating [2]	Corn plant response rating (0 to 100 scale) (corn (Zea mays))	Corn plant response rating (corn (Zea mays))	Kochia plant response rating (0 to 100 scale) (kochia (Kochia scoparia) [3])	Kochia plant response rating (kochia (Kochia scoparia) [3])	Wheat plant response rating (0 to 100 scale) [4]	Wheat plant response rating [4]	Barnyardgrass plant response rating (0 to 100 scale) [5]	Barnyardgrass plant response rating [5]	Pigweed plant response rating (0 to 100 scale) [6]	Pigweed plant response rating [6]	Galium plant response rating (0 to 100 scale) [7]	Galium plant response rating [7]	Foxtail, Giant plant response rating (0 to 100 scale) [8]	Foxtail, Giant plant response rating [8]	Blackgrass plant response rating (0 to 100 scale) [9]	Blackgrass plant response rating [9]	also measured
C#CCO/N=C(\c1c(O)c(C)nn(C)c1=O)c1ccc(F)c2ccccc12 [Compound 108, 4-[(Z)-(4-fluoro-1-naphthalenyl)(2-propyn-1-yloxy)imino]methyl-5-hydroxy-2,6-dimethyl-3(2H)-pyridazinone]	100	100	100	80	80	30	80	60	80	70	90	90	100	90	100	100	90	80	100	100	Plant response rating, Ducksalad (0 to 100 scale, 0 is no effect, 100 is complete control) [10]: 0; Plant response rating, Barnyardgrass (0 to 100 scale, 0 is no effect, 100 is complete control) [11]: 0; Plant response rating, Sedge, Umbrella (0 to 100 scale, 0 is no effect, 100 is complete control) [12]: 0; Plant response rating, Rice (0 to 100 scale, 0 is no effect, 100 is complete control) (rice (Oryza sativa)): 0; Ryegrass, Italian plant response rating [13]: 100; Ryegrass, Italian plant response rating (0 to 100 scale) [13]: 100; Ragweed plant response rating [14]: 90; Ragweed plant response rating (0 to 100 scale) [14]: 100; Kochia plant response rating (kochia (Kochia scoparia) [15]): 50; Kochia plant response rating (0 to 100 scale) (kochia (Kochia scoparia) [15]): 100; Barnyardgrass plant response rating [16]: 90; Barnyardgrass plant response rating (0 to 100 scale) [16]: 100; Pigweed plant response rating [17]: 100; Pigweed plant response rating (0 to 100 scale) [17]: 100; Foxtail, Giant plant response rating [18]: 100; Foxtail, Giant plant response rating (0 to 100 scale) [18]: 100
C#CCO/N=C(/c1c(O)c(C)nn(C)c1=O)c1ccc(F)c2ccccc12 [Compound 109, 4-[(E)-(4-fluoro-1-naphthalenyl)[(2-propyn-1-yloxy)imino]methyl]-5-hydroxy-2,6-dimethyl-3(2H)-pyridazinone]	100	100	90	80	70	20	90	70	90	90	90	90	100	90	100	100	90	80	100	90	Plant response rating, Ducksalad (0 to 100 scale, 0 is no effect, 100 is complete control) [10]: 40; Plant response rating, Barnyardgrass (0 to 100 scale, 0 is no effect, 100 is complete control) [11]: 50; Plant response rating, Sedge, Umbrella (0 to 100 scale, 0 is no effect, 100 is complete control) [12]: 60; Plant response rating, Rice (0 to 100 scale, 0 is no effect, 100 is complete control) (rice (Oryza sativa)): 45; Ryegrass, Italian plant response rating [13]: 100; Ryegrass, Italian plant response rating (0 to 100 scale) [13]: 100; Ragweed plant response rating [14]: 90; Ragweed plant response rating (0 to 100 scale) [14]: 100; Kochia plant response rating (kochia (Kochia scoparia) [15]): 10; Kochia plant response rating (0 to 100 scale) (kochia (Kochia scoparia) [15]): 50; Barnyardgrass plant response rating [16]: 90; Barnyardgrass plant response rating (0 to 100 scale) [16]: 100; Pigweed plant response rating [17]: 100; Pigweed plant response rating (0 to 100 scale) [17]: 100; Foxtail, Giant plant response rating [18]: 100; Foxtail, Giant plant response rating (0 to 100 scale) [18]: 100
CON=C(c1c(O)c(C)nn(C)c1=O)c1cccc2ccc(Cl)cc12 [Compound 110]	80	30	90	60	30	10	60	50	0	0	70	50	100	90	100	90	90	50	90	90	Plant response rating, Ducksalad (0 to 100 scale, 0 is no effect, 100 is complete control) [10]: 0; Plant response rating, Barnyardgrass (0 to 100 scale, 0 is no effect, 100 is complete control) [11]: 0; Plant response rating, Sedge, Umbrella (0 to 100 scale, 0 is no effect, 100 is complete control) [12]: 0; Plant response rating, Rice (0 to 100 scale, 0 is no effect, 100 is complete control) (rice (Oryza sativa)): 0; Ryegrass, Italian plant response rating [13]: 60; Ryegrass, Italian plant response rating (0 to 100 scale) [13]: 70; Ragweed plant response rating [14]: 40; Ragweed plant response rating (0 to 100 scale) [14]: 90; Kochia plant response rating (kochia (Kochia scoparia) [15]): 0; Kochia plant response rating (0 to 100 scale) (kochia (Kochia scoparia) [15]): 10; Barnyardgrass plant response rating [16]: 70; Barnyardgrass plant response rating (0 to 100 scale) [16]: 80; Pigweed plant response rating [17]: 50; Pigweed plant response rating (0 to 100 scale) [17]: 100; Foxtail, Giant plant response rating [18]: 60; Foxtail, Giant plant response rating (0 to 100 scale) [18]: 100
CON=C(c1c(O)c(C)nn(C)c1=O)c1cccc2ccc(Cl)cc12 [Compound 111]	90	70	80	80	30	20	60	40	60	0	80	50	90	60	90	80	70	60	100	80	Plant response rating, Ducksalad (0 to 100 scale, 0 is no effect, 100 is complete control) [10]: 0; Plant response rating, Barnyardgrass (0 to 100 scale, 0 is no effect, 100 is complete control) [11]: 0; Plant response rating, Sedge, Umbrella (0 to 100 scale, 0 is no effect, 100 is complete control) [12]: 0; Plant response rating, Rice (0 to 100 scale, 0 is no effect, 100 is complete control) (rice (Oryza sativa)): 0; Ryegrass, Italian plant response rating [13]: 30; Ryegrass, Italian plant response rating (0 to 100 scale) [13]: 70; Ragweed plant response rating [14]: 70; Ragweed plant response rating (0 to 100 scale) [14]: 100; Kochia plant response rating (kochia (Kochia scoparia) [15]): 20; Kochia plant response rating (0 to 100 scale) (kochia (Kochia scoparia) [15]): 100; Barnyardgrass plant response rating [16]: 60; Barnyardgrass plant response rating (0 to 100 scale) [16]: 70; Pigweed plant response rating [17]: 100; Pigweed plant response rating (0 to 100 scale) [17]: 100; Foxtail, Giant plant response rating [18]: 50; Foxtail, Giant plant response rating (0 to 100 scale) [18]: 90
